Legend:
[1] = Half life in Sprague-Dawley rat plasma at 1 mg/kg, iv; format: ADME, organism-based
[2] = Clearance in Balb/c mouse at 1 mg/kg, iv formulated with 5:60:35 DMA/PEG400/20% SBECD relative to liver blood flow; format: ADME, organism-based; conditions: in vivo
[3] = Unbound AUC in Sprague-Dawley rat at 25 mg/kg, po; format: ADME, organism-based; conditions: in vivo
[4] = Clearance in Sprague-Dawley rat at 1 mg/kg, iv relative to liver blood flow; format: ADME, organism-based; conditions: in vivo
[5] = Cmax in Balb/c mouse at 100 mg/kg, po formulated in 0.5 % methyl cellulose maintained at pH 3 to 4; format: ADME, organism-based; parameters: route oral, dose 100 mg/kg; conditions: in vivo, pH 3, 100 mg/kg
[6] = Volume of distribution at steady state in Sprague-Dawley rat at 1 mg/kg, iv; format: ADME, organism-based; conditions: in vivo, read-out: Vdss
[7] = Intrinsic clearance in rat liver microsomes assessed per mg protein; format: ADME, Microsome
[8] = Tmax in Sprague-Dawley rat at 25 mg/kg, po; format: ADME, organism-based; conditions: in vivo
[9] = Protein binding in mouse plasma assessed as bound fraction; format: ADME, cell-free
[10] = Half life in Beagle dog plasma at 1 mg/kg, iv; format: ADME, organism-based, Canis lupus familiaris
[11] = Volume of distribution at steady state in Beagle dog at 1 mg/kg, iv; format: ADME, organism-based, Canis lupus familiaris; conditions: in vivo, read-out: Vdss
[12] = Volume of distribution at steady in Balb/c mouse at 1 mg/kg, iv formulated with 5:60:35 DMA/PEG400/20% SBECD; format: ADME, organism-based; conditions: in vivo, read-out: Vdss
Cytochrome P450 2D6 = Cytochrome P450 2D6 (Homo sapiens, UniProt P10635); assay: Time dependent inhibition of CYP2D6 (unknown origin); format: ADME
[13] = Unbound Cmax in Balb/c mouse at 100 mg/kg, po formulated in 0.5 % methyl cellulose maintained at pH 3 to 4; format: ADME, organism-based; conditions: in vivo, pH 3, 100 mg/kg
Cytochrome P450 2C8 = biological target: T1, Cytochrome P450 2C8 (Homo sapiens, UniProt P10632); assay: Time dependent inhibition of CYP2C8 (unknown origin); format: ADME
T1 sequence (P10632 whole entry): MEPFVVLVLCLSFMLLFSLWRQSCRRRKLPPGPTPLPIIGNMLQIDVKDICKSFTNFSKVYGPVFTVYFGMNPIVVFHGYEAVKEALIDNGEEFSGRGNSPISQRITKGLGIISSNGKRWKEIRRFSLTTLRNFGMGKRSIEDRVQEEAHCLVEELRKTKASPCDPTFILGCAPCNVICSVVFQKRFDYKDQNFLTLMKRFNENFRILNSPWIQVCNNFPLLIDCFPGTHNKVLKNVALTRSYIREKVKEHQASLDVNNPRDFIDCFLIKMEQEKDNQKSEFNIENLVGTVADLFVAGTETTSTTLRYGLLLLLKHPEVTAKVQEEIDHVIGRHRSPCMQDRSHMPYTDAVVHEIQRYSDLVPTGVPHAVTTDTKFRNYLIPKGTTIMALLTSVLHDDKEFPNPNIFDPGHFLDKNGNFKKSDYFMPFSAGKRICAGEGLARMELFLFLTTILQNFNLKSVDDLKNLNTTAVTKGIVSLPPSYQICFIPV

[14] = Unbound clearance in Sprague-Dawley rat at 1 mg/kg, iv; format: ADME, organism-based; conditions: in vivo
CYP3A4 = CYP3A4 (Homo sapiens, UniProt P08684); assay: Inhibition of CYP3A4 (unknown origin) at 10 uM relative to control; format: ADME
[15] = biological target: T2, Histone-lysine N-methyltransferase EZH1 (Homo sapiens, UniProt Q92800)
T2 sequence (Q92800 whole entry): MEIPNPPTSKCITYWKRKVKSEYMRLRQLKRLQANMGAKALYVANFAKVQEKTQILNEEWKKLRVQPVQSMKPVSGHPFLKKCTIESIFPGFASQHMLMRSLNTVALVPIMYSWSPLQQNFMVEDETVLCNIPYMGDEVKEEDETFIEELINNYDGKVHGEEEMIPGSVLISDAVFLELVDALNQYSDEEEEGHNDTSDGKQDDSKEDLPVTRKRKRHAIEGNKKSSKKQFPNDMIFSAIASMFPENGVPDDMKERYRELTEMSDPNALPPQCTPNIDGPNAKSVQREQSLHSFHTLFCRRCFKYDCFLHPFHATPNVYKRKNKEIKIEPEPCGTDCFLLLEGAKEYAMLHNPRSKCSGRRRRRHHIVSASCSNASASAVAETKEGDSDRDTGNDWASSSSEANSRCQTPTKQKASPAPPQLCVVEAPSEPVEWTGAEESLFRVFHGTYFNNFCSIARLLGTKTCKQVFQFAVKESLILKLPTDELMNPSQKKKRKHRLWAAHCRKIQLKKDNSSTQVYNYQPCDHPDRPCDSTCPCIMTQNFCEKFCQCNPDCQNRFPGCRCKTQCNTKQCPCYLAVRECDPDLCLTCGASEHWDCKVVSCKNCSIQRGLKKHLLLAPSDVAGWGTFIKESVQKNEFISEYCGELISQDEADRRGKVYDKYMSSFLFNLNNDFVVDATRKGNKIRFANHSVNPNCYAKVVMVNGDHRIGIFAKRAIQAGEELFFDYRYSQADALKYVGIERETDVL
Description: Inhibition of EZH1 (unknown origin)

[16] = Toxicity in CB17 SCID mouse xenografted with human KARPAS-422 cells harboring EZH2 Y641N mutant assessed as effect body weight loss at 160 mg/kg, po BID administered for 25 days; format: organism-based; conditions: in vivo, 600 h, time 25 day
[17] = Half life in Balb/c mouse plasma at 1 mg/kg, iv formulated with 5:60:35 DMA/PEG400/20% SBECD; format: ADME, organism-based
CYP1A2 = biological target: T3, CYP1A2 (Homo sapiens, UniProt P05177); assay: Inhibition of CYP1A2 (unknown origin) at 10 uM relative to control; format: ADME
T3 sequence (P05177 whole entry): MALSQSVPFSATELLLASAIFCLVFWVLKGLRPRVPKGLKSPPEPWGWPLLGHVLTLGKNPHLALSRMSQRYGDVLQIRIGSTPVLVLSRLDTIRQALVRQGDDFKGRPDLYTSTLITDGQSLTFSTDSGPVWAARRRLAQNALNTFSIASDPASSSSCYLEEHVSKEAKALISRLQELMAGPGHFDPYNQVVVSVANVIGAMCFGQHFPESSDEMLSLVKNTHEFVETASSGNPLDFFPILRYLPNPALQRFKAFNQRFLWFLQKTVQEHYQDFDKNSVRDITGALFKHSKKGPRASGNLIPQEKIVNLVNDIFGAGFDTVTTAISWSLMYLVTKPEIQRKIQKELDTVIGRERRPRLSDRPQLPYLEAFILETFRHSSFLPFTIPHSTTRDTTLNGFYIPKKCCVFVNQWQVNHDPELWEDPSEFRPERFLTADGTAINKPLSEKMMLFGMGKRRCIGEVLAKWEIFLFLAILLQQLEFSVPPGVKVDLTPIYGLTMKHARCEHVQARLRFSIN

[18] = biological target: Voltage-gated inwardly rectifying potassium channel KCNH2 (Homo sapiens, UniProt Q12809)
Description: Binding affinity to human ERG

[19] = AUC (0 to infinity) in Beagle dog at 5 mg/kg, po; format: ADME, organism-based, Canis lupus familiaris; parameters: route oral, time infinity, dose 5 mg/kg; conditions: in vivo

Sequence of Voltage-gated inwardly rectifying potassium channel KCNH2 (Q12809 whole entry): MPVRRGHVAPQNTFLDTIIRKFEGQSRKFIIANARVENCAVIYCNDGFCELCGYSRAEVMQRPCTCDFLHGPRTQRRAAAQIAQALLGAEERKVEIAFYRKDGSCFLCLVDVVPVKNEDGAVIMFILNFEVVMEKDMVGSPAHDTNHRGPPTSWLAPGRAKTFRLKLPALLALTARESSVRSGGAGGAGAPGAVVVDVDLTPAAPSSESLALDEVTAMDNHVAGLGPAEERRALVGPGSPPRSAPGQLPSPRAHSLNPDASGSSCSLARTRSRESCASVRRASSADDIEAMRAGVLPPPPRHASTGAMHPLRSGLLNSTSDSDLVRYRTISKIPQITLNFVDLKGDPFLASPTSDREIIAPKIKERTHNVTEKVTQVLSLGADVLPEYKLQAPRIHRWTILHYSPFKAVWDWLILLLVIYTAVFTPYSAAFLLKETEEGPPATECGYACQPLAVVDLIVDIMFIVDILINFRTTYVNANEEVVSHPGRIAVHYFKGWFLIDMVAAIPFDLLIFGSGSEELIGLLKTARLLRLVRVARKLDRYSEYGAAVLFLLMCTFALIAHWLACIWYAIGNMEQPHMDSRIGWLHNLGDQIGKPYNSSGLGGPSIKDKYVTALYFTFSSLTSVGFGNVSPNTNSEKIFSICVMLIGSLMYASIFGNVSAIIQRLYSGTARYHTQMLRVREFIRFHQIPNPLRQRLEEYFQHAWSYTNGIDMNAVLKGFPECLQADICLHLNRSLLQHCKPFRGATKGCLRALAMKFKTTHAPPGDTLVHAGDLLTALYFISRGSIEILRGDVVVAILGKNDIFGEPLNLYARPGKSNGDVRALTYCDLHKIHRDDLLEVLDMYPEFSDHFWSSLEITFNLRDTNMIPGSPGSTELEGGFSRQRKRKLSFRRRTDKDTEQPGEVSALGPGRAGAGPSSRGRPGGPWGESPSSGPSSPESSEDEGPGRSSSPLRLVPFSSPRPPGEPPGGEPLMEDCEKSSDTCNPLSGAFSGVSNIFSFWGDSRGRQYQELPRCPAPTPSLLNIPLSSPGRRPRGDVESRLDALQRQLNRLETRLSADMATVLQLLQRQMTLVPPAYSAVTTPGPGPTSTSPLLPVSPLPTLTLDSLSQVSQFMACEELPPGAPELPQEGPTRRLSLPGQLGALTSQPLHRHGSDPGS
Sequence of Cytochrome P450 2D6 (P10635 whole entry): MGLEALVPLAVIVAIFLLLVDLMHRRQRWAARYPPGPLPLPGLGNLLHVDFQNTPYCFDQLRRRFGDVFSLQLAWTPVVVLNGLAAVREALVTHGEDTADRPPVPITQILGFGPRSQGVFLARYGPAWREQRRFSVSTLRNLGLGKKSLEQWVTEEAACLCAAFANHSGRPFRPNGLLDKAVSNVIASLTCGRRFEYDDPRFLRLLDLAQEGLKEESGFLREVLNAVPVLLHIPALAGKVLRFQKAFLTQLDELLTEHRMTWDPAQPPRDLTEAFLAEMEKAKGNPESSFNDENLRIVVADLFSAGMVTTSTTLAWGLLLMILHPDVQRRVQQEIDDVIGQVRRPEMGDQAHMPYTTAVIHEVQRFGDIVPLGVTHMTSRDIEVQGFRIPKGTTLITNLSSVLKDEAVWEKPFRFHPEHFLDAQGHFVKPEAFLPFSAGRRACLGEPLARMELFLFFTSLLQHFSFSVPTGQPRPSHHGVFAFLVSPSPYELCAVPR
Sequence of CYP3A4 (P08684 whole entry): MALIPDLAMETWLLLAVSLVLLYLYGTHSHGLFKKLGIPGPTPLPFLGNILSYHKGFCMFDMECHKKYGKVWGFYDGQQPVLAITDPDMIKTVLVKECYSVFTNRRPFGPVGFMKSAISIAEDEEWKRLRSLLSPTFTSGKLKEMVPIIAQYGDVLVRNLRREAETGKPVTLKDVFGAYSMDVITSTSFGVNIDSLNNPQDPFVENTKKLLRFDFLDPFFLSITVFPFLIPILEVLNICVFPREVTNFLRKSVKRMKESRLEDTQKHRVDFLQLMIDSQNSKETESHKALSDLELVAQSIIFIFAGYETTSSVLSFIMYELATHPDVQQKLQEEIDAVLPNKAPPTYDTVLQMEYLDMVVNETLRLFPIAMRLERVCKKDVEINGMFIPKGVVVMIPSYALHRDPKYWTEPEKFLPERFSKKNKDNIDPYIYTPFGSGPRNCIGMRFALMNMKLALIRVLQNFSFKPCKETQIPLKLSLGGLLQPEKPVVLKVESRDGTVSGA

Structure (SMILES): COc1cc(C)[nH]c(=O)c1CNC(=O)c1c(C)n([C@H](C)C2CCN(CC(F)(F)F)CC2)c2ccccc12 [CPI-1205]
- half-life [1]: 0.653 h
- CL [2]: 40%
- fAUC [3]: 0.713 µM·h
- CL [4]: 97%
- Cmax [5]: 67.4 µM
- Vd [6]: 2.22 L/kg
- CLH [7]: 99.6 µL/min
- Tmax [8]: 0.5 h
- PPB [9]: 97.9%
- half-life [10]: 1.84 h
- Vd [11]: 1.6 L/kg
- Vd [12]: 1.36 L/kg
- TDI (Cytochrome P450 2D6): Not Active
- fCmax [13]: 1.41 µM
- TDI (Cytochrome P450 2C8): Not Active
- CL free [14]: 527 mL/min/kg
- inhibition at 10 µM (CYP3A4): 0%
- IC50 [15]: 0.052 µM
- Activity [16]: Non-Toxic
- half-life [17]: 1.63 h
- inhibition at 10 µM (CYP1A2): 15%
- IC50 [18]: 21.3 µM
- AUC(0-inf) [19]: 3.19 µM·h
